# Source: patent publication US20190209650A1, “METHOD TO IMPROVE THE EFFECTIVENESS OF ANTI-CANCER THERAPIES BY EXPOSING CANCER CELLS TO AN INFLAMMATORY STIMULUS PRIOR TO TREATMENT” (priority 2016, published 2019)
# System: SW620 colorectal cancer cell line
# Assay: Flow cytometry of EpCAM positive cells and cancer stem cell (CD44+CD133-) subpopulation after incubation with cytokines
# Assay type: cell-based, human
# Details: for % Gated, R4 (CD44FITC, CD133 PE) / % Total, R4 (CD44FITC, CD133 PE): population R4 & R14 & R2 & R1; for % Gated, R5 (CD44FITC, CD133 PE) / % Total, R5 (CD44FITC, CD133 PE): population R5 & R14 & R2 & R1; for % Gated, R6 (CD44FITC, CD133 PE) / % Total, R6 (CD44FITC, CD133 PE): population R6 & R14 & R2 & R1; for % Gated, R7 Cancer Stem Cell (CSC) (CD44+CD133-) / % Total, R7 Cancer Stem Cell (CSC) (CD44+CD133-): population R7 & R14 & R2 & R1; for % Gated, R8 (CD44FITC, EpCAMefluor710) / % Total, R8 (CD44FITC, EpCAMefluor710): population R8 & R14 & R2 & R1; for % Gated, R9 EpCAM positive Cells (CD44FITC, EpCAMefluor710) / % Total, R9 EpCAM positive Cells (CD44FITC, EpCAMefluor710): population R9 & R14 & R2 & R1; for % Gated, R10 EpCAM positive Cells (CD44FITC, EpCAMefluor710) / % Total, R10 EpCAM positive Cells (CD44FITC, EpCAMefluor710): population R10 & R14 & R2 & R1; for % Gated, R11 (CD44FITC, EpCAMefluor710) / % Total, R11 (CD44FITC, EpCAMefluor710): population R11 & R14 & R2 & R1
# Experimental: This number returned to near baseline 21% at 48 hours. […] This change was transient, occurring within 24 hours and rapidly returning to baseline.
# The data from the scatter plots of FIGS. 1A-1H, 2A-2H, and 3A-3H are reproduced below in Tables 1-3.
# Based on the above data of potentiating the effectiveness of chemotherapy by exposing cancer cells to specific cytokines such as HGF and or Il-6 within a time limited fashion, the mechanism behind this ability to sensitize cancer cells may not simply be triggering cellular proliferation. Specific cytokine exposures can transiently cause a cancer cell population to differentiate away from a more stem cell enriched, mesenchymal phenotype towards a more differentiated, epithelial cell population more sensitive to the effects of anti-cancer therapies (see Tables 1-3).
# In particular, exposure to a control population of SW620 colorectal cancer cell line to HGF at a concentration of 10 ng per ml for 24 hours caused the control putative stem cell population (CD44+/CD133−) to drop from 33% at baseline (see Table 1, R7 region, CD 44 positive/CD133 negative) to 1% (see Table 2, R7, region CD 44 positive/CD133 negative). This drop was transient, as exposure to the same cell line for 48 hours of HGF at 10 ng per ml transitioned the phenotypic distribution back towards a stem cell enriched phenotype with 23% putative stem cells (see Table 3, R7 region, CD 44 positive/CD133 negative).
substance,measurement,setting,value
"IL6: Interleukin 6, cytokine","% Gated, R4 (CD44FITC, CD133 PE)",0 hour incubation,48.6%
same,"% Total, R4 (CD44FITC, CD133 PE)",0 hour incubation,45.1%
same,"% Gated, R5 (CD44FITC, CD133 PE)",0 hour incubation,3.48%
same,"% Total, R5 (CD44FITC, CD133 PE)",0 hour incubation,3.23%
same,"% Gated, R6 (CD44FITC, CD133 PE)",0 hour incubation,13.9%
same,"% Total, R6 (CD44FITC, CD133 PE)",0 hour incubation,12.9%
same,"% Gated, R7 Cancer Stem Cell (CSC) (CD44+CD133-)",0 hour incubation,34.2%
same,"% Total, R7 Cancer Stem Cell (CSC) (CD44+CD133-)",0 hour incubation,31.7%
same,"% Gated, R8 (CD44FITC, EpCAMefluor710)",0 hour incubation,5.15%
same,"% Total, R8 (CD44FITC, EpCAMefluor710)",0 hour incubation,4.78%
same,"% Gated, R9 EpCAM positive Cells (CD44FITC, EpCAMefluor710)",0 hour incubation,53%
same,"% Total, R9 EpCAM positive Cells (CD44FITC, EpCAMefluor710)",0 hour incubation,49.2%
same,"% Gated, R10 EpCAM positive Cells (CD44FITC, EpCAMefluor710)",0 hour incubation,39%
same,"% Total, R10 EpCAM positive Cells (CD44FITC, EpCAMefluor710)",0 hour incubation,36.1%
same,"% Gated, R11 (CD44FITC, EpCAMefluor710)",0 hour incubation,2.42%
same,"% Total, R11 (CD44FITC, EpCAMefluor710)",0 hour incubation,2.24%
same,"% Gated, R4 (CD44FITC, CD133 PE)",24 h incubation,41.1%
same,"% Total, R4 (CD44FITC, CD133 PE)",24 h incubation,33.4%
same,"% Gated, R5 (CD44FITC, CD133 PE)",24 h incubation,7.69%
same,"% Total, R5 (CD44FITC, CD133 PE)",24 h incubation,6.27%
same,"% Gated, R6 (CD44FITC, CD133 PE)",24 h incubation,28.8%
same,"% Total, R6 (CD44FITC, CD133 PE)",24 h incubation,23.4%
same,"% Gated, R7 Cancer Stem Cell (CSC) (CD44+CD133-)",24 h incubation,22.3%
same,"% Total, R7 Cancer Stem Cell (CSC) (CD44+CD133-)",24 h incubation,18.1%
same,"% Gated, R8 (CD44FITC, EpCAMefluor710)",24 h incubation,5.35%
same,"% Total, R8 (CD44FITC, EpCAMefluor710)",24 h incubation,4.36%
same,"% Gated, R9 EpCAM positive Cells (CD44FITC, EpCAMefluor710)",24 h incubation,48.4%
same,"% Total, R9 EpCAM positive Cells (CD44FITC, EpCAMefluor710)",24 h incubation,39.4%
same,"% Gated, R10 EpCAM positive Cells (CD44FITC, EpCAMefluor710)",24 h incubation,45.2%
same,"% Total, R10 EpCAM positive Cells (CD44FITC, EpCAMefluor710)",24 h incubation,36.8%
same,"% Gated, R11 (CD44FITC, EpCAMefluor710)",24 h incubation,1.94%
same,"% Total, R11 (CD44FITC, EpCAMefluor710)",24 h incubation,1.58%
same,"% Gated, R4 (CD44FITC, CD133 PE)",48 h incubation,37.5%
same,"% Total, R4 (CD44FITC, CD133 PE)",48 h incubation,33.7%
same,"% Gated, R5 (CD44FITC, CD133 PE)",48 h incubation,7.38%
same,"% Total, R5 (CD44FITC, CD133 PE)",48 h incubation,6.64%
same,"% Gated, R6 (CD44FITC, CD133 PE)",48 h incubation,30.7%
same,"% Total, R6 (CD44FITC, CD133 PE)",48 h incubation,27.6%
same,"% Gated, R7 Cancer Stem Cell (CSC) (CD44+CD133-)",48 h incubation,25.1%
same,"% Total, R7 Cancer Stem Cell (CSC) (CD44+CD133-)",48 h incubation,22.6%
same,"% Gated, R8 (CD44FITC, EpCAMefluor710)",48 h incubation,26%
same,"% Total, R8 (CD44FITC, EpCAMefluor710)",48 h incubation,23.4%
same,"% Gated, R9 EpCAM positive Cells (CD44FITC, EpCAMefluor710)",48 h incubation,27.6%
same,"% Total, R9 EpCAM positive Cells (CD44FITC, EpCAMefluor710)",48 h incubation,24.8%
same,"% Gated, R10 EpCAM positive Cells (CD44FITC, EpCAMefluor710)",48 h incubation,26%
same,"% Total, R10 EpCAM positive Cells (CD44FITC, EpCAMefluor710)",48 h incubation,23.3%
same,"% Gated, R11 (CD44FITC, EpCAMefluor710)",48 h incubation,21.4%
same,"% Total, R11 (CD44FITC, EpCAMefluor710)",48 h incubation,19.3%
